Experimental data from US7875289B2, “Compositions of less immunogenic and long-circulating protein-lipid complexes” (The Research Foundation of State University of New York, priority 2006, dated 2011).

Target: T1, BDDrFVIII (Homo sapiens, UniProt P00451)
T1 construct: Deletion of the B domain leads to a less heterogenic, genetically engineered rFVIII that corresponds to the shortest form of pdFVIII (e.g. ˜170 KDa)
T1 sequence (P00451 with tags, fused parts or gaps DEL765-1658): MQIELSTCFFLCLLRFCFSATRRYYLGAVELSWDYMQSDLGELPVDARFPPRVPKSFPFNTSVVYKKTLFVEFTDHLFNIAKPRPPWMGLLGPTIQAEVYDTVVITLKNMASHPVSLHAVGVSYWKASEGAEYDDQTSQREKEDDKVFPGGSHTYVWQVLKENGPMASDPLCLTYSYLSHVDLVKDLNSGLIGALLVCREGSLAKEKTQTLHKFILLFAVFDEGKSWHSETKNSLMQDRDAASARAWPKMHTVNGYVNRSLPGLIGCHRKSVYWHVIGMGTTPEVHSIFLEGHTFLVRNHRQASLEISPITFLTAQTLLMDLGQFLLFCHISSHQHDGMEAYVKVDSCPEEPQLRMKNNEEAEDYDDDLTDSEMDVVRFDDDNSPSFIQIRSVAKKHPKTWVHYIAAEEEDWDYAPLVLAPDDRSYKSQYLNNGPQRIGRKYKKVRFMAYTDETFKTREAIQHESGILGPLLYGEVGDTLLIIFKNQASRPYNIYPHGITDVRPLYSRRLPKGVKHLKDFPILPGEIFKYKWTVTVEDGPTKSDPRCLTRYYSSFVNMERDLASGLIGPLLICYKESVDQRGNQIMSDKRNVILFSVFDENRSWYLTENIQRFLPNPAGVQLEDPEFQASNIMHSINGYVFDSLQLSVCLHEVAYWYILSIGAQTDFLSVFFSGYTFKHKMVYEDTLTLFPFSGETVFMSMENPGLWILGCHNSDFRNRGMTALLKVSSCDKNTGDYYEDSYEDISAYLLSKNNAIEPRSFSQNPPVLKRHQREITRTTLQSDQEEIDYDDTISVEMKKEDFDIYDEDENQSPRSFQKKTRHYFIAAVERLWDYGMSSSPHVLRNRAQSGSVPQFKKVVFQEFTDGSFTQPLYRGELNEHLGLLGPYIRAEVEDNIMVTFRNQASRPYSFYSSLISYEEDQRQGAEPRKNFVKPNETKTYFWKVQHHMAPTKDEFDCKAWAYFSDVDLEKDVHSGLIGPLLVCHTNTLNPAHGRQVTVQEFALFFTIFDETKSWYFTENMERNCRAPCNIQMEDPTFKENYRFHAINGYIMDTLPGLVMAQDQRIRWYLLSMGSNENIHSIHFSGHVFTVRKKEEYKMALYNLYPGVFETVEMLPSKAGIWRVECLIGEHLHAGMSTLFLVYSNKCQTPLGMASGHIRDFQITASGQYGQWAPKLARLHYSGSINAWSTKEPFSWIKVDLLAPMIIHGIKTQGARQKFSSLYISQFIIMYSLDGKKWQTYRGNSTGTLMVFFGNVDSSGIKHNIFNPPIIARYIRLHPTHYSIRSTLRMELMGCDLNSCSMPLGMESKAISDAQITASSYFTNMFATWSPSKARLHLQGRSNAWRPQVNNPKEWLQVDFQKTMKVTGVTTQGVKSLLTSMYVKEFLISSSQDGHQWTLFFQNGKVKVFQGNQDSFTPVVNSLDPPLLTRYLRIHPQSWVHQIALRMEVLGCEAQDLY
Assay: Dissociation constant of lipid head group - BDDrFVIII interaction by intrinsic fluorescence
Type: binding
Settings: excitation 285 nm, emission 330 nm, protein 3 ug/mL
Description: This examples describes the preparation of PS containing liposomes that were used for comparison with the PI containing lipidic structures in other Examples. BDDrFVIII was mixed with solution containing different concentration of O-phospho-L-serine (OPLS) or phosphocholine in such a way that the final protein concentration is maintained constant at 3 ug/mL. The OPLS or phosphocholine concentration vared between 0 and 100 uM. Each mixture is incubated for 5 minutes before subjecting to further analysis.
The intrinsic fluorescent of BDDrFVIII in the presence of increasing concentration of phospholipids head group was measured with a Quanta Master PTI instrument. The excitation was set to 285 nm and the emission was recorded at peak maximum (e.g. 330 nm). The normalized fluorescence (F/F0) data was plotted vs. [lipid] and used for the determination of the dissociation constant for lipid head group—BDDrFVIII interaction.

Compound | Kd [µM]
N[C@@H](COP(=O)(O)O)C(=O)O [OPLS, O-phospho-L-serine] | 70.2
C[N+](C)(C)CCOP(=O)([O-])O [phophocholine, phosphocholine] | 24.2
